Data taken from PMC8226262, “Licarin-B Exhibits Activity Against the Toxoplasma gondii RH Strain by Damaging Mitochondria and Activating Autophagy” (Frontiers in Cell and Developmental Biology, 2021).
≈ marks a conversion by molar mass, not a printed value.

Experiments:
[1] = test system: T. gondii tachyzoite intracellular proliferation in HFFs; assay: Anti-proliferation activity of licarin-B (qPCR); type: cell-based, Toxoplasma gondii; conditions: 24 h
Description: DMEM without drugs was used as a parasite control. […] After 24 h, the cells were washed twice with PBS, and total genomic DNA from the cells was obtained as described in a previous study ([Zhang J.L. et al., 2019]). […] The results represent the means ± standard deviations (SD) from at least three independent experiments. The EC50 of licarin-B for tachyzoite growth inhibition was plotted as a function of the compound concentration via non-linear curve analysis using SPSS 19.0 software (SPSS Inc., Chicago, IL, United States). The results of the anti-invasion and anti-proliferation tests, the in vivo assays of the survival rate and parasite burden and data comparisons between the parasite control and treatment groups were statistically analyzed by one-way analysis of variance (ANOVA) using SPSS software.

[2] = test system: T. gondii invasion of HFFs; assay: Anti-invasion assessment in vitro (qPCR); type: cell-based, Toxoplasma gondii; conditions: 4.5–22.5 μg/mL, 2 h of infection
Description: Human foreskin fibroblasts were seeded in 6-well plates and incubated with different concentrations of licarin-B (4.5, 9, 13.5, 18, or 22.5 μg/mL), sulfadiazine (0.4 μg/mL, as a positive control) or without drugs in DMEM supplemented with 1% FBS and then infected with 3 × 10^6 fresh parasites per well. The anti-invasion capability of licarin-B was determined by qPCR after 2 h of infection, as described in a previous study ([Zhang J.L. et al., 2019]). Triplicate independent experiments were performed.

[3] = test system: extracellular T. gondii tachyzoites; assay: MitoTracker Red CMXRos staining (mitochondrial membrane potential); type: cell-based, Toxoplasma gondii
Description: Extracellular parasites (1 × 10^5 per group) were incubated in DMEM with licarin-B (18 μg/mL) for 4, 8, or 16 h at 37°C; with licarin-B (18, 27, or 36 μg/mL) for 8 h at 37°C; or without any drug (as a control). Then, all the samples were stained with the MitoTracker Red CMXRos probe (50 nM, Invitrogen, United States) for 20 min. ([Zhang J.L. et al., 2019]). The fluorescence intensity was observed by laser confocal microscopy (ZEISS LSM-800, Jena, Germany).

[4] = Dose safety assessment in vivo; conditions: mice treated with the tested doses (25 or 50 mg/kg⋅bw) for 30 days
Description: Dose safety assessment in vivo was performed to determine safe doses of licarin-B, as previously described.

T. gondii tachyzoites [5] = assay: Monodansylcadaverine (MDC) staining of autophagosomes; type: cell-based, Toxoplasma gondii
Description: For each sample, approximately 1 × 10^5 tachyzoites were treated with licarin-B (18 μg/mL) in DMEM for 4, 8, or 16 h at 37°C; licarin-B (18, 27, or 36 μg/mL) in DMEM for 8 h at 37°C; or no drug (as a control) in DMEM. Then, the samples were washed with PBS (pH 7.4), suspended in monodansylcadaverine (MDC) working solution (100 μM) at 37°C for 1 h after centrifugation, and washed twice with PBS. The tachyzoites were resuspended in 500 μL of PBS, and the fluorescence in each group was visualized by laser scanning confocal microscopy.

[6] = test system: T. gondii tachyzoites (strain RH) in HFFs; assay: In vitro screening of anti-T. gondii activity (Giemsa staining, qPCR); type: cell-based, Toxoplasma gondii; conditions: 24 h
Description: Human foreskin fibroblasts were seeded in 6-well plates and infected with 3 × 10^4 fresh T. gondii tachyzoites. After 8 h, the natural compounds in DMEM supplemented with 1% FBS were added. Sulfadiazine and pyrimethamine were included as positive drug controls. After incubation for 24 h, the cells were washed twice with PBS, stained with Giemsa, and observed by light microscopy. In addition, total DNA was isolated from the cells using DNAiso Reagent (Takara), and a 529-bp repeat element was amplified by quantitative polymerase chain reaction (qPCR) with the following primers: Tox-F (5′-AGGAGAGATATCAGGACTGTAG-3′), Tox-R (5′-GCGTCGTCTCGTCTAGATCG-3′), and the Taqman probe Tox-TP (6-Fam CCGGCTTGGCTGCTTTTCCT BHQ1), as described in a previous study ([Zhang J.L. et al., 2019]). The inhibition rates against T. gondii proliferation for the natural compounds at concentrations with no HFF toxicity were calculated, and the inhibition rate in each treatment group was presented as the % of the control group. The experiment was repeated three times.

[7] = test system: extracellular T. gondii tachyzoites; assay: DAPI staining of the nucleus; type: cell-based, Toxoplasma gondii; conditions: 18, 27, or 36 μg/mL for 16 h
Description: Extracellular parasites (1 × 10^5 per group) were incubated in DMEM with licarin-B (18, 27, or 36 μg/mL) or without any drug (as a control) for 16 h at 37°C. All the samples were stained with 4′,6-diamidino-2-phenylindole (DAPI) at 37°C for 10 min, and fluorescence intensity was observed by laser confocal microscopy.

[8] = test system: extracellular T. gondii tachyzoites; assay: Flow cytometry analysis of T. gondii survival (annexin V-PE / 7-AAD); type: cell-based, Toxoplasma gondii; conditions: 24 h
Description: Approximately 1 × 10^6 extracellular tachyzoites were incubated with licarin-B (18 or 36 μg/mL) in DMEM or with no drug as a control for 24 h, followed by centrifugation at 1,500 × g for 10 min. The samples were washed with PBS and suspended in 100 μL of binding buffer with 5 μL of annexin V-PE and 5 μL of 7-AAD dye in the dark for 20 min at 37°C. Double mixtures were acquired and analyzed by flow cytometry (BD FACSVerse, United States) ([Giovati et al., 2018]). The experiment was repeated three times.

T. gondii tachyzoites [9] = assay: In vivo parasite burden in tissues and blood (qPCR); parameters: species or system BALB/c mice; conditions: 50 mg/kg⋅bw, acutely infected mice
Description: To evaluate the therapeutic effect of licarin-B on acute infection, mice were infected intraperitoneally with 1 × 10^4 tachyzoites and then divided into three groups (six mice/group) for treatment with PBS (as a parasite control), licarin-B (50 mg/kg⋅bw), or a positive control drug, as described above ([Zhang J.L. et al., 2019]). The treatments were administered for 4 consecutive days, and then, the number of parasites in the tissue and blood samples were deduced from standard curves constructed using known numbers of tachyzoites, as previously described.

[10] = test system: T. gondii tachyzoites in HFFs; assay: Transmission electron microscopy of tachyzoites; type: cell-based, Toxoplasma gondii; conditions: 18 μg/mL
Description: For transmission electron microscopy (TEM) analysis, HFFs were seeded to confluence in T25 flasks and infected with 1.5 × 10^6 T. gondii tachyzoites for 8 h. After the addition of 18 μg/mL licarin-B, the cells were cultured for 4, 8, or 16 h, digested with TrypLE Express for 2 min, washed twice with PBS, fixed with 2.5% glutaraldehyde at 4°C for 12 h, washed with PBS to remove glutaraldehyde and post-fixed with 1% osmium acid solution for 1.5 h in the dark. The samples were then washed with PBS, dehydrated in a graded alcohol series, dehydrated in acetone and embedded in Epon. Ultrathin sections were stained with uranyl acetate and lead citrate and observed under a transmission electron microscope (Tecnai Spirit Bio-TWIN, Thermo Fisher Scientific, FEI, United States).

T. gondii tachyzoites [11] = assay: In vivo survival of acutely infected mice; parameters: species or system BALB/c mice; conditions: 30-day test period
Description: The therapeutic effect on acute infection was evaluated as described by Zhang; female BALB/c mice were divided into four groups consisting of 10 mice each, and each mouse was injected with 2 × 10^3 tachyzoites by intraperitoneal injection. Then, the mice were treated with licarin-B (25 or 50 mg/kg⋅bw), the positive drugs (100 mg/kg⋅bw sulfadiazine, 50 mg/kg⋅bw pyrimethamine, or 15 mg/kg⋅bw folinic acid) or PBS (as control) ([Si et al., 2018]). Positive drugs were administered by oral administration, and licarin-B was administered by intraperitoneal injection. […] The survival times of the infected mice and the number of deaths were monitored and recorded twice daily for 30 days.

T. gondii [12] = test system: T. gondii; parameters: method as in Zhang J. et al., 2019; conditions: 50 mg/kg.bw; ref Zhang J. et al., 2019; cited from earlier work
T. gondii [13] = conditions: ref Zhang J. et al., 2019; cited from earlier work

For `C/C=C/c1cc(OC)c2c(c1)C(C)[C@@H](c1ccc3c(c1)OCO3)O2` (stereo partly drawn) [Licarin-B, 5-[(2S)-2,3-D\dihydro-7-methoxy-3β-methyl-5-[(E)-1-propenyl]benzofuran-2-yl]-1,3-benzodioxole], the “Inhibition of T. gondii tachyzoite intracellular proliferation vs control” value ([1]; 4.5–45 μg/mL) was “significantly (p < 0.01) inhibited T. gondii tachyzoite intracellular proliferation in a concentration-dependent manner”, the “EC50 for T. gondii tachyzoite growth inhibition” value ([1]; intracellular proliferation in HFFs) was 14.05 ± 3.96 µg/mL and the “Inhibition of T. gondii invasion vs control” value [2] was “significantly (p < 0.01) inhibited T. gondii invasion”. The “Mitochondrial membrane potential (ΔΨm)” value ([3]; 18 μg/mL for 4, 8, or 16 h) was “decreased the ΔΨm in T. gondii in a time-dependent manner”, the “Mitochondrial membrane potential (ΔΨm)” value ([3]; 18, 27, or 36 μg/mL for 8 h) was “the ΔΨm was reduced in a dose-dependent manner” and the Clinical toxicity [4] was “no discernible clinical toxicity was observed”. For the same compound, the “MDC labelling of autophagosomes” value (T. gondii tachyzoites [5]; 18 μg/mL for 4, 8, or 16 h) was “some parasites were positive for MDC”, the “MDC labelling of autophagosomes” value (T. gondii tachyzoites [5]; 18, 27, and 36 μg/mL for 8 h) was “autophagy was induced in T. gondii in a concentration-dependent manner” and the “Mean inhibition rate (% of control)” value ([6]; 200 μg/mL, T. gondii proliferation in HFFs) was 99.76 ± 5.81%. For the same compound, the “Parasitophorous vacuoles (PVs) in host cells” value ([6]; Giemsa staining, maximum concentration safe for HFFs (licarin-B 200 μg/mL)) was “no parasitophorous vacuoles (PVs) in host cells”, the “DAPI staining of parasite nuclei” value [7] was “diffuse fluorescent signal in the parasite nuclei” and the “T. gondii survival rate” value ([8]; 18 μg/mL) was “approximately 45%”. The “T. gondii survival rate” value ([8]; 36 μg/mL) was about 26%, the “Parasite loads in the blood and brain, liver, and spleen tissues vs parasite control” value (T. gondii tachyzoites [9]) was “significantly (p < 0.01) reduced the parasite loads” and the “Ultrastructural changes in tachyzoites (TEM)” value (shortened to “Ultrastructural changes”) ([10]; 4 h) was “slight mitochondrial swelling and a double membrane structure”. The “Ultrastructural changes” value ([10]; 8 h) was “mitochondrial swelling, cristae disruption, vacuole formation, and an autophagy-like double membrane structure in the cytoplasm”, the “Ultrastructural changes” value ([10]; 16 h) was “extensive clefts around the nucleus, nuclear membrane disappearance, and progressive degeneration of the parasites” and the “Survival rate of infected mice” value (T. gondii tachyzoites [11]; 25 mg/kg⋅bw intraperitoneal once daily for 15 days) was 60%. The “Survival rate of infected mice” value (T. gondii tachyzoites [11]; 50 mg/kg⋅bw intraperitoneal once daily for 15 days) was 90%.

In the case of `C=CCc1cc(OC)c(O[C@@H](C)[C@H](O)c2ccc(O)c(OC)c2)c(OC)c1` [myrislignan], the “Survival rate in mice upon acute infection” value (T. gondii [12]) is given as 50% and the “EC50, anti-T. gondii activity” value (T. gondii [13]) is given as 32.41 µg/mL (≈ 86.6 µM).
